pEC50: −log10 of the molar value.

The assay addresses T1, Muscarinic acetylcholine receptor M2 (Sus scrofa, UniProt P06199).
T1 sequence (P06199 whole entry): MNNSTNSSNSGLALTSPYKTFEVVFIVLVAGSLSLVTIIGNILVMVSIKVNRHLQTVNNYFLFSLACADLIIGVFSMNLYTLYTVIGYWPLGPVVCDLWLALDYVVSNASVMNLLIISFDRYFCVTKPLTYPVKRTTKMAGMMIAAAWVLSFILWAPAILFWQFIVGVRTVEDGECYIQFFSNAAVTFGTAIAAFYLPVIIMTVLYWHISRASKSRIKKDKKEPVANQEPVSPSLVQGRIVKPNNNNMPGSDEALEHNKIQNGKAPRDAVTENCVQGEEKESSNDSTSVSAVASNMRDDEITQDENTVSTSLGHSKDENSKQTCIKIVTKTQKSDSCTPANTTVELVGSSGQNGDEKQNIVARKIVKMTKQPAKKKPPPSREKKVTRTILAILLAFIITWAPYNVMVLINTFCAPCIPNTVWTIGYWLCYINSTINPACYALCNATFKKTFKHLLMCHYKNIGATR
Briefly: Allosteric inhibition of [3H]NMS (N-methyl-scopolamine) dissociation from porcine cardiac Muscarinic acetylcholine receptor M2.
Usually pEC50 stands for the EC50 on a negative log10 scale, so that one unit is a factor of ten. A higher pEC50 goes with a low EC50. The compound `C1=C2C[N@+]3(Cc4ccccc4)CC[C@]45c6ccccc6N6[C@@H]7OCC=C8C[N@+]9(Cc%10ccccc%10)CC[C@]%10%11c%12ccccc%12N([C@H](OC1)[C@@H]([C@H]64)[C@H]2C[C@@H]53)[C@H]%10[C@H]7[C@H]8C[C@@H]%119` showed a pEC50 of 7.16. Under `C=CC[N+]12CCC34c5ccccc5N5[C@@H]6OCC=C7C[N+]8(CC=C)CCC9%10c%11ccccc%11N([C@@H]%11OCC=C(C1)[C@H](C[C@@H]32)[C@@H]%11[C@H]54)[C@H]9[C@H]6[C@H]7C[C@@H]%108` (some centres not stated) stands 8.52; under `C1=C2CN3CCC45c6ccccc6N6[C@@H]7OCC=C8CN9CCC%10%11c%12ccccc%12N([C@H](OC1)[C@@H]([C@H]64)[C@H]2C[C@H]35)[C@H]%10[C@H]7[C@H]8C[C@H]9%11` (some centres not stated), 5.93; under `CCC[N+]12CCC34c5ccccc5N5[C@@H]6OCC=C7C[N+]8(CCC)CCC9%10c%11ccccc%11N([C@@H]%11OCC=C(C1)[C@H](C[C@@H]32)[C@@H]%11[C@H]54)[C@H]9[C@H]6[C@H]7C[C@@H]%108` (some centres not stated), 7.52. The value for `C[N+]12CCC34c5ccccc5N5[C@@H]6OCC=C7C[N+]8(C)CCC9%10c%11ccccc%11N([C@@H]%11OCC=C(C1)[C@H](C[C@@H]32)[C@@H]%11[C@H]54)[C@H]9[C@H]6[C@H]7C[C@@H]%108` (some centres not stated) was 8.10. The value for `O=C1c2ccccc2C(=O)N1CCC[N+]12CCC34c5ccccc5N5[C@@H]6OCC=C7C[N+]8(CCCN9C(=O)c%10ccccc%10C9=O)CCC9%10c%11ccccc%11N([C@@H]%11OCC=C(C1)[C@H](C[C@@H]32)[C@@H]%11[C@H]54)[C@H]9[C@H]6[C@H]7C[C@@H]%108` (some centres not stated) was 6.42; that for `O=[N+]([O-])c1ccc(C[N+]23CCC45c6ccccc6N6[C@@H]7OCC=C8C[N+]9(Cc%10ccc([N+](=O)[O-])cc%10)CCC%10%11c%12ccccc%12N([C@@H]%12OCC=C(C2)[C@H](C[C@@H]43)[C@@H]%12[C@H]65)[C@H]%10[C@H]7[C@H]8C[C@@H]%119)cc1` (some centres not stated) was 6.50. With `Brc1ccc(C[N+]23CCC45c6ccccc6N6[C@@H]7OCC=C8C[N+]9(Cc%10ccc(Br)cc%10)CCC%10%11c%12ccccc%12N([C@@H]%12OCC=C(C2)[C@H](C[C@@H]43)[C@@H]%12[C@H]65)[C@H]%10[C@H]7[C@H]8C[C@@H]%119)cc1` (some centres not stated), the pEC50 was 6.29. Under `C1=C2C[N+]3(Cc4ccc5ccccc5c4)CCC45c6ccccc6N6[C@@H]7OCC=C8C[N+]9(Cc%10ccc%11ccccc%11c%10)CCC%10%11c%12ccccc%12N([C@H](OC1)[C@@H]([C@H]64)[C@H]2C[C@@H]53)[C@H]%10[C@H]7[C@H]8C[C@@H]%119` (some centres not stated) stands 5.81. For `FC(F)(F)c1ccc(C[N+]23CCC45c6ccccc6N6[C@@H]7OCC=C8C[N+]9(Cc%10ccc(C(F)(F)F)cc%10)CCC%10%11c%12ccccc%12N([C@@H]%12OCC=C(C2)[C@H](C[C@@H]43)[C@@H]%12[C@H]65)[C@H]%10[C@H]7[C@H]8C[C@@H]%119)cc1` (some centres not stated), the pEC50 was 5.76.

On to `COc1ccc(C[N+]23CCC45c6ccccc6N6[C@@H]7OCC=C8C[N+]9(Cc%10ccc(OC)c(OC)c%10)CCC%10%11c%12ccccc%12N([C@@H]%12OCC=C(C2)[C@H](C[C@@H]43)[C@@H]%12[C@H]65)[C@H]%10[C@H]7[C@H]8C[C@@H]%119)cc1OC` (some centres not stated), for which the negative logarithm of the EC50 (pEC50) is 6.47. `C#CC[N+]12CCC34c5ccccc5N5[C@@H]6OCC=C7C[N+]8(CC#C)CCC9%10c%11ccccc%11N([C@@H]%11OCC=C(C1)[C@H](C[C@@H]32)[C@@H]%11[C@H]54)[C@H]9[C@H]6[C@H]7C[C@@H]%108` (some centres not stated) gave a pEC50 of 8.40.

(Values after ChEMBL document CHEMBL1132811, “Bisquaternary caracurine V derivatives as allosteric modulators of ligand binding to M2 acetylcholine receptors” (Bioorg Med Chem Lett, 2000).)
